Experimental data from ChEMBL document CHEMBL1149508, “From arylureas to biarylamides to aminoquinazolines: discovery of a novel, potent TRPV1 antagonist” (Bioorg Med Chem Lett, 2006).
≈ marks a conversion by molar mass, not a printed value. Calls of active or inactive are those of the source. The rule behind the calls is not given here.

How the values were obtained:
[1] = target: Transient receptor potential cation channel subfamily V member 1 (Rattus norvegicus, UniProt O35433); assay: Antagonist activity against low pH(5.0-5.5)-activated rat VR1; type: functional
[2] = Aqueous solubility at pH 7.4 by HTsol assay; type: physicochemical; conditions: buffer
[3] = target: T1, Transient receptor potential cation channel subfamily V member 1 (Homo sapiens, UniProt Q8NER1); assay: Antagonist activity against capsaicin-activated human VR1 by FLIPR assay; type: functional
[4] = Bioavailability in rat; type: ADME, organism-based; conditions: in vivo
[5] = target: T1, Transient receptor potential cation channel subfamily V member 1; assay: Agonist activity at human VR1 expressed in HEK293 cells upto 4 uM; type: functional, cell-based
[6] = Tmax in rat at 3 mg/kg, iv; type: ADME, organism-based; parameters: dose 3 mg/kg, route intravenous; conditions: in vivo
[7] = Half life in rat at 3 mg/kg, iv; type: ADME, organism-based; parameters: dose 3 mg/kg, route intravenous; conditions: in vivo
[8] = Volume of distribution in rat at 3 mg/kg, iv; type: ADME, organism-based; parameters: dose 3 mg/kg, route intravenous; conditions: in vivo, read-out: Vdss
[9] = Clearance in rat at 3 mg/kg, iv; type: ADME, organism-based; parameters: dose 3 mg/kg, route intravenous; conditions: in vivo
[10] = Bioavailability in rat at 3 mg/kg, iv; type: ADME, organism-based; conditions: in vivo

T1 sequence (Q8NER1 whole entry): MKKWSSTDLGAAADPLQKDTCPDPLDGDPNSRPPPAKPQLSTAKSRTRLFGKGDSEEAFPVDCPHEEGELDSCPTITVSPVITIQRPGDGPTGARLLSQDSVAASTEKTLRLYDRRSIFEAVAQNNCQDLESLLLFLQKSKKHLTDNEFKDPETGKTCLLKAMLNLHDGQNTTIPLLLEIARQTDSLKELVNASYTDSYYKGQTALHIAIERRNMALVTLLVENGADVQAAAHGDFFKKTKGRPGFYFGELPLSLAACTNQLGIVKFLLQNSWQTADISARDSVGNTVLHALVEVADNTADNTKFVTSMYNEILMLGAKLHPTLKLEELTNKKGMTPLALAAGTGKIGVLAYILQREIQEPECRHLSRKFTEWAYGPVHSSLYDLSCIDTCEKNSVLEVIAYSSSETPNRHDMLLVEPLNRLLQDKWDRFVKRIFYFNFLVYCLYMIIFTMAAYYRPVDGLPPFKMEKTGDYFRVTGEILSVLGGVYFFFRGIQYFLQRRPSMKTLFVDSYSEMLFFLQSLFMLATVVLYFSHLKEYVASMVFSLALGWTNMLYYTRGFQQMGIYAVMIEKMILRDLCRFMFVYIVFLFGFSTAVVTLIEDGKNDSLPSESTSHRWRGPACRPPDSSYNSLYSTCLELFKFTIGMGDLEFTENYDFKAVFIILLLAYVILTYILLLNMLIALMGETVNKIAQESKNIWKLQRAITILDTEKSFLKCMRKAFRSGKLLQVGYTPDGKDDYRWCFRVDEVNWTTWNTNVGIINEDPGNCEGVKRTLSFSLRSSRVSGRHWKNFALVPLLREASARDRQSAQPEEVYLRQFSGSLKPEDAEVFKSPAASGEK
Chain of Transient receptor potential cation channel subfamily V member 1 (Rattus norvegicus, UniProt O35433) (O35433 whole entry): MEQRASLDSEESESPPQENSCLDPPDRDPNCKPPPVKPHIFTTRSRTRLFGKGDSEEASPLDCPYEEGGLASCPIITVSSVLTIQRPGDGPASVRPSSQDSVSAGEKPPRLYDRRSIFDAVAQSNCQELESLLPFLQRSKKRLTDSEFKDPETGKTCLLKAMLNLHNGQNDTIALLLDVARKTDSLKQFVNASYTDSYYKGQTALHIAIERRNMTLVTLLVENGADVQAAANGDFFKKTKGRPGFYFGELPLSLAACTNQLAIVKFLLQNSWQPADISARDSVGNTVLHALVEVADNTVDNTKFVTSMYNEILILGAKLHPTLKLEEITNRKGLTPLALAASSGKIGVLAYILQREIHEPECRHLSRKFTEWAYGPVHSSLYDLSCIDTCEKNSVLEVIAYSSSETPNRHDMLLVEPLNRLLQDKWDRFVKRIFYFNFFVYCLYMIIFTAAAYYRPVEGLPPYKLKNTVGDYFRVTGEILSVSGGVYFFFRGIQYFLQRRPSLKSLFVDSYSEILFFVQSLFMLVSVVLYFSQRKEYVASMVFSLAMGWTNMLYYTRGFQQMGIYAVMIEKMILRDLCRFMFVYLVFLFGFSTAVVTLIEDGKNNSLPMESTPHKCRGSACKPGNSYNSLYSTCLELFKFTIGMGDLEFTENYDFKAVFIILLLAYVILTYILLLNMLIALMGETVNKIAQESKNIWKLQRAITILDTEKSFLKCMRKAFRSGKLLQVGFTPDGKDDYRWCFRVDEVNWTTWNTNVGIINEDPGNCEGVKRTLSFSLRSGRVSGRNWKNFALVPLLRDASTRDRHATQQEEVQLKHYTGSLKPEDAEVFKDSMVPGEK

Row | IC50 [1] [nM] | IC50 [3] [nM] | SMILES | further results
1 | 560 | > 4000 | CC(C)(C)c1ccc(NC(=O)c2ccc(-c3ncccc3C(=O)O)cc2)cc1 | solubility [2]: 104 µg/mL (≈ 278 µM)
2 | 0.4 | 0.8 | CC(C)(C)c1ccc(NC(=O)c2ccc(-c3ncccc3N(S(C)(=O)=O)S(C)(=O)=O)cc2)cc1 | solubility [2]: 1 µg/mL (≈ 1.99 µM)
3 | 4 | 6 | CC(C)(C)c1ccc(NC(=O)c2ccc(-c3ncccc3C(F)(F)F)cc2)cc1 | bioavailability [4]: 2%
4 | 325 | 123 | CC(C)(C)c1ccc(NC(=O)c2ccc(-c3ncccc3N)cc2)cc1 | 
5 | 583 | 624 | Cc1cccnc1-c1ccc(C(=O)Nc2ccc(C(F)(F)F)cc2)cn1 | 
6 | 20 | 62 | CCCOc1cccnc1-c1ccc(C(=O)Nc2ccc(C(C)(C)C)cc2)cc1 | 
7 | 4 | 49 | CCS(=O)(=O)Nc1cccnc1-c1ccc(C(=O)Nc2ccc(C(C)(C)C)cc2)cc1 | solubility [2]: 1 µg/mL (≈ 2.29 µM)
8 | > 4000 | > 4000 | COc1ccc(NC(=O)c2ccc(-c3ncccc3C)cc2)cc1 | 
9 | 1580 | 1780 | Cc1cccnc1-c1ccc(C(=O)Nc2ccc(C(F)(F)F)cc2)nc1 | 
10 | 2 | 8 | CC(C)(C)c1ccc(NC(=O)c2ccc(-c3ncccc3Cl)cc2)cc1 | 
11 | 366 | 189 | Cc1cccnc1-c1ccc(C(=O)Nc2ccc(Br)cc2)cc1 | 
12 | 81 | 65 | Cc1cccnc1-c1ccc(C(=O)Nc2ccc(C(F)(F)F)cc2)cc1 | 
13 | 11 | 17 | C[C@@H]1CN(c2ncccc2C(F)(F)F)CCN1C(=O)Nc1ccc(C(F)(F)F)cc1 | Activity [5]: inactive; Tmax [6]: 0.5 h; half-life [7]: 7.2 h; Vd [8]: 12 L/kg; clearance [9]: 39 mL/min/kg; bioavailability [10]: 27%
14 | > 4000 | > 4000 | CC(C)(C)c1ccc(NC(=O)c2ccc(-c3ncccc3-c3nnn[nH]3)cc2)cc1 | 
15 | 8 | 11 | CC(C)(C)c1ccc(NC(=O)c2ccc(-c3ccccn3)cc2)cc1 | 
16 | 34 | 387 | Cc1nnc(-c2cccnc2-c2ccc(C(=O)Nc3ccc(C(C)(C)C)cc3)cc2)o1 | 
17 | 190 | 233 | Cc1cc(C(=O)Nc2ccc(C(F)(F)F)cc2)ccc1-c1ncccc1C | 
18 | > 4000 | > 4000 | Cc1cccnc1-c1ccc(C(=O)Nc2ccc(F)cc2)cc1 | 
19 | 60 | 42 | O=C(Nc1ccc(C(F)(F)F)cc1)c1ncc(-c2ncccc2C(F)(F)F)cn1 | 
20 | 44 | 190 | CC(C)(C)c1ccc(NC(=O)c2ccc(-c3ncccc3NC3CCCC3)cc2)cc1 | 
21 | > 4000 | > 4000 | CC(C)(C)c1ccc(NC(=O)c2ccc(-c3ncccc3C(=N)N)cc2)cc1 | 

Row | IC50 [1] [nM] | IC50 [3] [nM] | SMILES | further results
22 | 234 | 746 | CN(C)Cc1cccnc1-c1ccc(C(=O)Nc2ccc(C(C)(C)C)cc2)cc1 | solubility [2]: 50 µg/mL (≈ 129 µM)
23 | 26 |  | O=C(Nc1ccc(C(F)(F)F)cc1)c1ccc(-c2ncccc2C(F)(F)F)cc1 | Activity [5]: inactive
24 | 1.4 |  | FC(F)(F)c1ccc(Nc2ncnc3cc(-c4ncccc4C(F)(F)F)ccc23)cc1 [NGD-8243] | Activity [5]: inactive; Tmax [6]: 0.7 h; half-life [7]: 8.1 h; Vd [8]: 12.5 L/kg; clearance [9]: 23 mL/min/kg; bioavailability [10]: 99%
25 | 2400 | > 4000 | O=C(Nc1ccc(C(F)(F)F)cc1)c1ccc(-c2ncccc2C(F)(F)F)cc1Cl | 
26 | 334 | 1410 | CCN(CC)Cc1cccnc1-c1ccc(C(=O)Nc2ccc(C(C)(C)C)cc2)cc1 | 
27 | 196 | 1530 | CC(C)(C)c1ccc(NC(=O)c2ccc(-c3ncccc3CN3CCCC3)cc2)cc1 | 
28 | 37 | 158 | CCCNc1cccnc1-c1ccc(C(=O)Nc2ccc(C(C)(C)C)cc2)cc1 | 
29 | 56 | 60 | O=C(Nc1ccc(C(F)(F)F)cc1)c1ccc(-c2ncccc2C(F)(F)F)nc1 | 
30 | 722 | 1020 | CS(=O)(=O)Nc1cc(-c2ncccc2C(F)(F)F)ccc1C(=O)Nc1ccc(C(F)(F)F)cc1 | 
31 | 639 | 4300 | CCCNCc1cccnc1-c1ccc(C(=O)Nc2ccc(C(C)(C)C)cc2)cc1 | 
32 | 694 | 3670 | CC(C)(C)c1ccc(NC(=O)c2ccc(-c3ncccc3-c3ncc[nH]3)cc2)cc1 | 
33 | > 4000 | > 4000 | Cc1cccnc1-c1ccc(C(=O)Nc2ccccn2)cc1 | 
34 | 13 | 30 | CC(C)(C)c1ccc(NC(=O)c2ccc(-c3ncccc3C#N)cc2)cc1 | 
35 | 348 | 131 | O=C(Nc1ccc(C(F)(F)F)cc1)c1ccc(-c2ncccc2C(F)(F)F)cc1F | 
36 | 88 | 168 | CC(C)(C)c1ccc(NC(=O)c2ccc(-c3ncccc3CO)cc2)cc1 | 
37 | 35 | 152 | CC(C)(C)c1ccc(NC(=O)c2ccc(-c3ncccc3NS(C)(=O)=O)cc2)cc1 | 
38 | 2020 | 1500 | Cc1cccnc1-c1ccc(C(=O)Nc2ccc(Cl)cc2)cc1 | 
39 | 1 | 3 | CC(C)(C)c1ccc(NC(=O)c2ccc(-c3ncccc3F)cc2)cc1 | 
40 | 103 | 93 | Nc1cc(-c2ncccc2C(F)(F)F)ccc1C(=O)Nc1ccc(C(F)(F)F)cc1 | 
41 | 5 | 49 | CC(C)(C)c1ccc(NC(=O)c2ccc(-c3ncccc3NO)cc2)cc1 | 
42 | > 4000 | 2580 | Cc1ccc(NC(=O)c2ccc(-c3ncccc3C)cc2)cc1 | 

Row | IC50 [1] [nM] | IC50 [3] [nM] | SMILES | further results
43 | 1040 | > 4000 | COc1cc(-c2ncccc2C(F)(F)F)ccc1C(=O)Nc1ccc(C(F)(F)F)cc1 | 
44 | > 4000 | > 4000 | Cc1cc(-c2ncccc2C)ccc1C(=O)Nc1ccc(C(F)(F)F)cc1 | 
45 | 166 | 91 | CC(C)(C)c1ccc(NC(=O)c2ccc(-c3ncccc3NS(=O)(=O)c3ccccc3)cc2)cc1 | solubility [2]: 1 µg/mL (≈ 2.06 µM)
46 | 5 | 5 | CC(C)(C)c1ccc(NC(=O)c2ccc(-c3ncccc3[N+](=O)[O-])cc2)cc1 | 
47 | 159 | 377 | CC(C)(C)c1ccc(NC(=O)c2ccc(-c3ncccc3NS(=O)(=O)Cc3ccccc3)cc2)cc1 | 
48 | 263 | 259 | Cc1nc(-c2ncccc2C(F)(F)F)ccc1C(=O)Nc1ccc(C(F)(F)F)cc1 | 
49 | 896 | 974 | Cc1cccnc1-c1ccc(C(=O)Nc2ccc(OC(F)(F)F)cc2)cc1 | 
50 | 764 | > 4000 | O=C(Nc1ccc(C(F)(F)F)cc1)c1ccc(-c2ncccc2C(F)(F)F)nc1O | 
51 | 192 | 257 | Cc1cc(C(=O)Nc2ccc(C(F)(F)F)cc2)ccc1-c1ncccc1C(F)(F)F | 
52 | 59 | 91 | CC(C)(C)c1ccc(NC(=O)c2ccc(-c3ncccc3-c3nnco3)cc2)cc1 | 
53 |  | > 4000 | O=C(Nc1ccccc1)c1ccc(-c2ncccc2C(F)(F)F)cc1 | 
54 | 36 | 43 | O=C(Nc1ccc(C(F)(F)F)cc1)c1ccc(-c2ncccc2C(F)(F)F)cc1O | 
55 | 1300 | 417 | N#Cc1ccc(NC(=O)c2ccc(-c3ncccc3C(F)(F)F)cc2)cc1 | 
56 | 65 | 24 | O=C(Nc1ccc(C(F)(F)F)cn1)c1ccc(-c2ncccc2C(F)(F)F)cc1 | 
57 | 9 | 39 | CN(c1cccnc1-c1ccc(C(=O)Nc2ccc(C(C)(C)C)cc2)cc1)S(C)(=O)=O | solubility [2]: 1 µg/mL (≈ 2.29 µM)
58 | 141 | 162 | CCCCS(=O)(=O)Nc1cccnc1-c1ccc(C(=O)Nc2ccc(C(C)(C)C)cc2)cc1 | 
59 | > 4000 | > 4000 | CS(=O)(=O)N(c1cc(-c2ncccc2C(F)(F)F)ccc1C(=O)Nc1ccc(C(F)(F)F)cc1)S(C)(=O)=O | 
60 | 43 | 73 | Cc1cccnc1-c1ccc(C(=O)Nc2ccc(C(C)C)cc2)cc1 | 
61 | 222 | 392 | O=C(Nc1ccc(C(F)(F)F)cc1)c1ccc(-c2ncccc2C(F)(F)F)cc1[N+](=O)[O-] | 
62 |  | 58 | O=C(Nc1ccc(C(F)(F)F)cc1)c1ccc(-c2ncccc2Cl)cc1 | 
63 | 9 |  | Cc1cccnc1-c1ccc(C(=O)Nc2ccc(C(C)(C)C)cc2)cc1 | 

Row | SMILES | IC50 [1] [nM] | IC50 [3] [nM] | further results
64 | CC(=O)Nc1cccnc1-c1ccc(C(=O)Nc2ccc(C(C)(C)C)cc2)cc1 | 290 | 1110 | 
